# Measured values as given in PubChem BioAssay AID330 (DTP/NCI, 2004).
# Where “and” joins values, the source holds several entries; their conditions need not be identical. Equal entries are not always repeated. Toxic doses and inconclusive results are not listed.
# Tested on: P388 leukemia ip, CD2F1 mice, survival T/C
# Assay: NCI In Vivo Anticancer Drug Screen. Data for tumor model P388 Leukemia (intraperitoneal) in CD2F1 (CDF1) mice
# Conditions: endpoint: median survival time, higher = longer survival
# Method in brief: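 Mice carrying the transplanted tumor received test compound or vehicle. Survival was recorded in each group, and the value is the treated-group measurement divided by that of the vehicle-treated control group.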
# [1] = dose: 50.0 mg/kg/injection, schedule: Q01DX005 (ip), vehicle: saline with Tween-80
# [2] = dose: 100.0 mg/kg/injection, schedule: Q01DX005 (ip), vehicle: saline with Tween-80
# [3] = dose: 200.0 mg/kg/injection, schedule: Q01DX005 (ip), vehicle: saline with Tween-80
# [4] = dose: 50.0 mg/kg/injection, schedule: Q01DX009 (ip), vehicle: Klucel (hydroxypropylcellulose) (HPC)
# [5] = dose: 100.0 mg/kg/injection, schedule: Q01DX009 (ip), vehicle: Klucel (hydroxypropylcellulose) (HPC)
# [6] = dose: 50.0 mg/kg/injection, schedule: Q01DX005 (ip), vehicle: Klucel (hydroxypropylcellulose) (HPC)
# [7] = dose: 100.0 mg/kg/injection, schedule: Q01DX005 (ip), vehicle: Klucel (hydroxypropylcellulose) (HPC)
# [8] = dose: 200.0 mg/kg/injection, schedule: Q01DX005 (ip), vehicle: Klucel (hydroxypropylcellulose) (HPC)
# [9] = dose: 60.0 mg/kg/injection, schedule: Q01DX005 (ip), vehicle: Klucel (hydroxypropylcellulose) (HPC)
# [10] = dose: 120.0 mg/kg/injection, schedule: Q01DX005 (ip), vehicle: Klucel (hydroxypropylcellulose) (HPC)
# [11] = dose: 240.0 mg/kg/injection, schedule: Q01DX005 (ip), vehicle: Klucel (hydroxypropylcellulose) (HPC)
# [12] = dose: 50.0 mg/kg/injection, schedule: Q01DX009 (ip), vehicle: saline with Tween-80
# [13] = dose: 100.0 mg/kg/injection, schedule: Q01DX009 (ip), vehicle: saline with Tween-80
# [14] = dose: 200.0 mg/kg/injection, schedule: Q01DX009 (ip), vehicle: saline with Tween-80
# [15] = dose: 100.0 mg/kg/injection, schedule: Q01DX001 (ip), vehicle: saline with Tween-80
# [16] = dose: 200.0 mg/kg/injection, schedule: Q01DX001 (ip), vehicle: saline with Tween-80
# [17] = dose: 400.0 mg/kg/injection, schedule: Q01DX001 (ip), vehicle: saline with Tween-80
# [18] = dose: 200.0 mg/kg/injection, schedule: Q01DX009 (ip), vehicle: Klucel (hydroxypropylcellulose) (HPC)
smiles,measurement,setting,value
C=[CH][Sn](=[O])[CH]=C,T/C,"dose: 50.0 mg/kg/injection, schedule: Q01DX009 (ip), vehicle: saline",104 % of control
same,T/C,"dose: 100.0 mg/kg/injection, schedule: Q01DX009 (ip), vehicle: saline",105 % of control and 89 % of control
same,T/C,"dose: 200.0 mg/kg/injection, schedule: Q01DX009 (ip), vehicle: saline",104 % of control and 88 % of control
N#C/C(=C/c1ccco1)c1ccccc1,T/C,"dose: 12.5 mg/kg/injection, schedule: Q01DX009 (ip), vehicle: Klucel (hydroxypropylcellulose) (HPC)",95 % of control
same,T/C,"dose: 25.0 mg/kg/injection, schedule: Q01DX009 (ip), vehicle: Klucel (hydroxypropylcellulose) (HPC)",88 % of control
COc1ccc2c(c1)CCC(C(O)C1(Sc3c(OC)cccc3OC)CC1)C2=O (configuration not stated),T/C,[1],100 % of control
same,T/C,[2],100 % of control
same,T/C,[3],100 % of control
COc1cc(/C=C\C(=O)c2cccc(O)c(=O)c2)cc(OC)c1OC,T/C,[4],112 % of control
same,T/C,[5],87 % of control
CC(=O)c1ccc(Cl)c(-n2cccc2)c1,T/C,[6],95 % of control
same,T/C,[7],101 % of control
Cc1ccc(C(=O)c2ccc[n+](C)c2)cc1,T/C,"dose: 50.0 mg/kg/injection, schedule: Q01DX005 (ip), vehicle: saline",100 % of control
same,T/C,"dose: 100.0 mg/kg/injection, schedule: Q01DX005 (ip), vehicle: saline",101 % of control
O=[N+]([O-])c1ccc(/C=N/NC(=S)NC23CC4CC(CC(C4)C2)C3)o1,T/C,[6],92 % of control
same,T/C,[7],103 % of control
same,T/C,[8],94 % of control
COc1cc(Br)cc(C(=O)N2CCc3ccccc32)c1OC,T/C,"dose: 25.0 mg/kg/injection, schedule: Q01DX009 (ip), vehicle: other",99 % of control
same,T/C,"dose: 50.0 mg/kg/injection, schedule: Q01DX009 (ip), vehicle: other",96 % of control
same,T/C,"dose: 100.0 mg/kg/injection, schedule: Q01DX009 (ip), vehicle: other",96 % of control
same,T/C,"dose: 200.0 mg/kg/injection, schedule: Q01DX009 (ip), vehicle: other",96 % of control
same,T/C,"dose: 400.0 mg/kg/injection, schedule: Q01DX009 (ip), vehicle: other",87 % of control
O=C(O)C1CCCN1C(=O)c1ccc(Cl)cc1 (configuration not stated),T/C,"dose: 12.5 mg/kg/injection, schedule: Q01DX005 (ip), vehicle: distilled water + Tween-80",99 % of control
same,T/C,"dose: 25.0 mg/kg/injection, schedule: Q01DX005 (ip), vehicle: distilled water + Tween-80",101 % of control
same,T/C,"dose: 50.0 mg/kg/injection, schedule: Q01DX005 (ip), vehicle: distilled water + Tween-80",97 % of control
same,T/C,"dose: 100.0 mg/kg/injection, schedule: Q01DX005 (ip), vehicle: distilled water + Tween-80",100 % of control
same,T/C,"dose: 200.0 mg/kg/injection, schedule: Q01DX005 (ip), vehicle: distilled water + Tween-80",104 % of control
Cn1nnn(C)c1=NC#N,T/C,"dose: 100.0 mg/kg/injection, schedule: Q01DX001 (ip), vehicle: saline",100 % of control
same,T/C,"dose: 200.0 mg/kg/injection, schedule: Q01DX001 (ip), vehicle: saline",107 % of control
same,T/C,"dose: 400.0 mg/kg/injection, schedule: Q01DX001 (ip), vehicle: saline",100 % of control
Cc1ccc2cccc(OC(=O)Nc3cccc(C(F)(F)F)c3)c2n1,T/C,[9],101 % of control
same,T/C,[10],107 % of control
same,T/C,[11],105 % of control
CC(=O)c1c(-c2nc(=S)[nH]c(C)c2C(C)=O)nc(=S)[nH]c1C,T/C,[9],106 % of control
same,T/C,[10],100 % of control
same,T/C,[11],90 % of control
COP(=O)(O)OC.[Th],T/C,[12],118 % of control
same,T/C,[13],88 % of control
same,T/C,[14],90 % of control
c1ccc(SCCOCCOCCSc2ccccn2)nc1,T/C,"dose: 25.0 mg/kg/injection, schedule: Q01DX005 (ip), vehicle: Klucel (hydroxypropylcellulose) (HPC)",103 % of control
same,T/C,[6],108 % of control
same,T/C,[7],111 % of control
O=Cc1ccc(O)c(CN2CCCCC2)c1,T/C,"dose: 6.25 mg/kg/injection, schedule: Q04DX003 (ip), vehicle: saline",109 % of control
same,T/C,"dose: 12.5 mg/kg/injection, schedule: Q04DX003 (ip), vehicle: saline",100 % of control
same,T/C,"dose: 25.0 mg/kg/injection, schedule: Q04DX003 (ip), vehicle: saline",100 % of control
CCOC(=O)C(C(=O)C(F)(F)C(F)(F)C(F)(F)C(=O)C(C(=O)OCC)=P(c1ccccc1)(c1ccccc1)c1ccccc1)=P(c1ccccc1)(c1ccccc1)c1ccccc1,T/C,[15],108 % of control
same,T/C,[16],99 % of control
same,T/C,[17],108 % of control
CC(C)n1c2c(c3ccccc3c1=O)C(=O)c1ccccc1-2,T/C,"dose: 12.5 mg/kg/injection, schedule: Q01DX005 (ip), vehicle: saline with Tween-80",95 % of control
same,T/C,"dose: 25.0 mg/kg/injection, schedule: Q01DX005 (ip), vehicle: saline with Tween-80",86 % of control
same,T/C,[1],86 % of control
CCOC(=O)C1(C(O)(C2CC2)C2(C(=O)OCC)CC2)CC1,T/C,[1],100 % of control
same,T/C,[2],102 % of control
same,T/C,[3],100 % of control
CCCC(NC(=O)OCc1ccccc1)C(=O)NC(Cc1c[nH]c2ccccc12)C(=O)O (configuration not stated),T/C,[6],109 % of control
same,T/C,[7],108 % of control
same,T/C,[8],94 % of control
COC1=C(N)C(=O)c2cccnc2C1=O,T/C,"dose: 3.13 mg/kg/injection, schedule: Q01DX009 (ip), vehicle: DMSO",92 % of control
same,T/C,"dose: 6.25 mg/kg/injection, schedule: Q01DX009 (ip), vehicle: DMSO",92 % of control
same,T/C,"dose: 12.5 mg/kg/injection, schedule: Q01DX009 (ip), vehicle: DMSO",100 % of control
same,T/C,"dose: 25.0 mg/kg/injection, schedule: Q01DX009 (ip), vehicle: DMSO",109 % of control
CC(=O)OCC1OC(n2ncc(=S)[nH]c2=O)C2OC(C)(C)OC12 (configuration not stated),T/C,[12],92 % of control
same,T/C,[13],95 % of control
same,T/C,[14],97 % of control
O=C1OCCOCCOCCOC(=O)c2ccccc2SSc2ccccc21,T/C,[15],90 % of control
same,T/C,[16],97 % of control
CC(C)(C=O)COC1OCN(C(C)(C)C)CC1(C)C (configuration not stated),T/C,[12],104 % of control
same,T/C,[13],122 % of control
CC12CC(=O)NC(=O)N1CCS2 (configuration not stated),T/C,[4],106 % of control
same,T/C,[5],100 % of control
same,T/C,[18],92 % of control
Cc1ccc(NC(=S)SCc2ccco2)cc1Cl,T/C,"dose: 50.0 mg/kg/injection, schedule: Q01DX009 (ip), vehicle: suspension in saline",100 % of control
same,T/C,"dose: 100.0 mg/kg/injection, schedule: Q01DX009 (ip), vehicle: suspension in saline",103 % of control
same,T/C,"dose: 200.0 mg/kg/injection, schedule: Q01DX009 (ip), vehicle: suspension in saline",109 % of control
COc1cccc(-n2c(SC)nccc2=O)c1,T/C,"dose: 100.0 mg/kg/injection, schedule: Q04DX003 (ip), vehicle: Klucel (hydroxypropylcellulose) (HPC)",100 % of control
same,T/C,"dose: 200.0 mg/kg/injection, schedule: Q04DX003 (ip), vehicle: Klucel (hydroxypropylcellulose) (HPC)",101 % of control
same,T/C,"dose: 400.0 mg/kg/injection, schedule: Q04DX003 (ip), vehicle: Klucel (hydroxypropylcellulose) (HPC)",100 % of control
CN(C)CC#N,T/C,"dose: 5.0 mg/kg/injection, schedule: Q01DX009 (ip), vehicle: saline",104 % of control
same,T/C,"dose: 10.0 mg/kg/injection, schedule: Q01DX009 (ip), vehicle: saline",109 % of control
same,T/C,"dose: 20.0 mg/kg/injection, schedule: Q01DX009 (ip), vehicle: saline",109 % of control
COC(=O)C1=C(C(=O)OC)C2CCCOC2=C(C)C1 (configuration not stated),T/C,[1],96 % of control
same,T/C,[2],95 % of control
same,T/C,[3],93 % of control
CCC1C(=O)OCCOCCOCCOCCOCCOC1=O,T/C,[4],100 % of control
same,T/C,[5],107 % of control
same,T/C,[18],99 % of control
CNC(=S)N/N=C1/CCOC(C)/C1=N\NC(=S)NC (configuration not stated),T/C,[1],93 % of control
same,T/C,[2],95 % of control
same,T/C,[3],92 % of control
CCOC(=O)c1[nH]ncc1[N+](=O)[O-],T/C,[15],103 % of control
same,T/C,[16],102 % of control
same,T/C,[17],102 % of control
COc1ccc(C2=NC(C)(C)CO2)cc1C,T/C,[1],103 % of control
same,T/C,[2],103 % of control
same,T/C,[3],94 % of control
CC([NH-])C[NH-].O=S(=O)(O)O.[Pt+2] (configuration not stated),T/C,"dose: 3.12 mg/kg/injection, schedule: Q04DX002 (ip), vehicle: saline",154 % of control
same,T/C,"dose: 12.5 mg/kg/injection, schedule: Q04DX002 (ip), vehicle: saline",90 % of control and 118 % of control
